Columns and labels:
[1] = Chemical stability in 0.1 M sodium tetraborate (Na2B4O7, pH 10.0) assessed as parent compound remaining incubated for 24 hrs by LC-MS method; assay type: physicochemical; settings: 0.1 M sodium tetraborate buffer, read-out: Stability
[2] = Chemical stability in 0.1 N HCl at pH 1.2 assessed as parent compound remaining incubated for 24 hrs by LC-MS method; assay type: physicochemical; settings: buffer, pH 1.2, 24 h
[3] = Chemical stability in simulated gastric intestinal fluid at pH 1.7 assessed as parent compound remaining incubated for 24 hrs by LC-MS method; assay type: ADME, physicochemical; settings: simulated gi fluid, pH 1.7, 24 h
[4] = Stability in C57BL/6 mouse plasma assessed as assessed as parent compound remaining at 10 uM by LC-MS method; assay type: ADME, cell-free, C57B/6; settings: read-out: Stability
[5] = biological target: Casein kinase I isoform alpha (Homo sapiens) (UniProt P48729); experiment: Inhibition of human CK1a1 at 10 uM by ADP-Glo kinase assay
[6] = Drug metabolism in 0.1 M sodium tetraborate (Na2B4O7, pH 10.0) assessed as fluoro-sulphonyl group hydrolysis incubated for 24 hrs by LC-MS method; assay type: physicochemical; settings: pH 10, 24 h
[7] = Chemical stability in 0.1 M K2PO4 at pH 7.4 assessed as parent compound remaining incubated for 24 hrs by LC-MS method; assay type: physicochemical; settings: buffer, pH 7.4, 24 h
[8] = biological target: T1, Calmodulin-sensitive adenylate cyclase (Bacillus anthracis) (UniProt P40136); experiment: Inactivation of Bacillus anthracis edema factor assessed as inactivation rate constant in presence of CaM incubated for 10 to 240 mins by EnzChek pyrophosphate assay
T1 sequence (whole entry): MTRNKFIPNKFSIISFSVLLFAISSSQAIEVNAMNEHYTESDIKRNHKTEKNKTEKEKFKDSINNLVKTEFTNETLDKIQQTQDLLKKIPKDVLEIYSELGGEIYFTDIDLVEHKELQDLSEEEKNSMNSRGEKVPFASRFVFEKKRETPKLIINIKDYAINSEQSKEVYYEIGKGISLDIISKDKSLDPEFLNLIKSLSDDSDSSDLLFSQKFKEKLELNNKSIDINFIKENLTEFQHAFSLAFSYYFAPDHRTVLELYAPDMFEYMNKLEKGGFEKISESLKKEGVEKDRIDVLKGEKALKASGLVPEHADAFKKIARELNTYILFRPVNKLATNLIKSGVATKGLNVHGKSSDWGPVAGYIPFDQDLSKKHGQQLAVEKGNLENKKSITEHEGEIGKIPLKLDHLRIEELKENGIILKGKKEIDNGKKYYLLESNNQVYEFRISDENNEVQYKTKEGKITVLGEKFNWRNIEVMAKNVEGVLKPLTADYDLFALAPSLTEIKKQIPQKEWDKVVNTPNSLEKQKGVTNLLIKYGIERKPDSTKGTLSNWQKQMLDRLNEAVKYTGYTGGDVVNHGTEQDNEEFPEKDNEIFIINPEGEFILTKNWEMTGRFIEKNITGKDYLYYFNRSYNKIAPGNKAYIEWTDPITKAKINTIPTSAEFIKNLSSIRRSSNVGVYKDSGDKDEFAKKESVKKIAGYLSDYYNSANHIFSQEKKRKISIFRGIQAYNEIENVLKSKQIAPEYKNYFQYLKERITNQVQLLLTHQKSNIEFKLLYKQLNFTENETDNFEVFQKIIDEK

[9] = biological target: T2, Inhibitor of nuclear factor kappa-B kinase subunit beta (Homo sapiens) (UniProt O14920); experiment: Inhibition of human IKKbeta at 10 uM by ADP-Glo kinase assay
T2 sequence (whole entry): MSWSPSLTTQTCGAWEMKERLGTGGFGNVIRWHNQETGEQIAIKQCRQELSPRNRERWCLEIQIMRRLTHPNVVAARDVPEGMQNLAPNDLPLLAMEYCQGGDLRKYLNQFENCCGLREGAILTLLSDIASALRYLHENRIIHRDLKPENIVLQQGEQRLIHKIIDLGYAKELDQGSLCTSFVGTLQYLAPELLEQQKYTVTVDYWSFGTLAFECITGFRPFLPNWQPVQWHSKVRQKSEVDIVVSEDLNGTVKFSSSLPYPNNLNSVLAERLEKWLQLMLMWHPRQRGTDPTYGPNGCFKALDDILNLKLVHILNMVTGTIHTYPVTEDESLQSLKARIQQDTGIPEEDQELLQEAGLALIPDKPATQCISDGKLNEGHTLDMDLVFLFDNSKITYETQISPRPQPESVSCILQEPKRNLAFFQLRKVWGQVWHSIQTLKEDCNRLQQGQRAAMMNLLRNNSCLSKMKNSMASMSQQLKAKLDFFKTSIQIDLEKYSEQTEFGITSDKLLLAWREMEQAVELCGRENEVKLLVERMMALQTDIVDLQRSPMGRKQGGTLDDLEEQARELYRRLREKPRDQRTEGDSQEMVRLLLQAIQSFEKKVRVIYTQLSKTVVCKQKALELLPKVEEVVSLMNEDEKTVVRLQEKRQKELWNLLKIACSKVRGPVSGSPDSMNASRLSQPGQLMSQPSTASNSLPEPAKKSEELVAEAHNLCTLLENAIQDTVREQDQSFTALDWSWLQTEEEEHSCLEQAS

[10] = biological target: T3, Calcium/calmodulin-dependent protein kinase type IV (Homo sapiens) (UniProt Q16566); experiment: Inhibition of human CAMK4 at 10 uM by ADP-Glo kinase assay
T3 sequence (whole entry): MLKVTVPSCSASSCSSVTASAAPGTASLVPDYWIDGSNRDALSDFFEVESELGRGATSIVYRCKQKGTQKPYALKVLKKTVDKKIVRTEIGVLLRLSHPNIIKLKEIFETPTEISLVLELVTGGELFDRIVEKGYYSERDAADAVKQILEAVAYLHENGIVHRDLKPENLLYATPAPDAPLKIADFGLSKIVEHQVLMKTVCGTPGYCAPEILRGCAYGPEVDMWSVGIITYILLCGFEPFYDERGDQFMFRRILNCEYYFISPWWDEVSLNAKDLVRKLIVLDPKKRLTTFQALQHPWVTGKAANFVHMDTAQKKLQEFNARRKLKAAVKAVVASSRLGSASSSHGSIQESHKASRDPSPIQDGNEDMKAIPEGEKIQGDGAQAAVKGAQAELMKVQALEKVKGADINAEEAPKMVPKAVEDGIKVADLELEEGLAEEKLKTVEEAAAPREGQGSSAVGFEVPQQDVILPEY

[11] = Stability in C57BL/6 mouse plasma assessed as half life at 10 uM by LC-MS method; assay type: ADME, cell-free, C57B/6

Chain of Casein kinase I isoform alpha (Homo sapiens) (P48729 2-337 limits assumed): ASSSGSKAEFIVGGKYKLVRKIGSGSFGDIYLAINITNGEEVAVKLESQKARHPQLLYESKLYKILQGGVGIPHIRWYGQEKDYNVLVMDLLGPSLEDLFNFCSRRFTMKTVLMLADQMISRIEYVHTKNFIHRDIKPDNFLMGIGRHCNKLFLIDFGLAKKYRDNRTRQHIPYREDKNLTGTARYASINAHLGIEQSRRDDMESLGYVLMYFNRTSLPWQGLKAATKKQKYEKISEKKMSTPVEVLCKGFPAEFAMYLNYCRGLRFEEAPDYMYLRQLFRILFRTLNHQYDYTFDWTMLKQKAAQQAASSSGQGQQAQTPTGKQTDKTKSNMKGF

**Q.** With `Nc1ncnc2c1ccn2C1CCN(C(=O)c2ccc(S(=O)(=O)F)cc2)CC1` as the compound, how does the remaining at 24 h [1] read?
**A.** < 1%

**Q.** What about the Stability [2] of the same compound?
**A.** Stable

**Q.** What about the Stability [3] of the same compound?
**A.** Stable

**Q.** And the remaining at 10 µM [4]?
**A.** < 5%

**Q.** What about the inhibition [5] of the same compound?
**A.** 0%

**Q.** What about the Drug metabolism [6] of the same compound?
**A.** Metabolite_Notdetected

**Q.** And the Stability [7]?
**A.** Stable

**Q.** And the Kinact [8]?
**A.** 0.282 min⁻¹

**Q.** What about the inhibition [9] of the same compound?
**A.** 0%

**Q.** What about the inhibition [10] of the same compound?
**A.** 7%

**Q.** What about the half-life at 10 µM [11] of the same compound?
**A.** 37.2 min

**Q.** For `Cc1nc(N)c2ccn(C3CCN(C(=O)c4ccc(S(=O)(=O)F)cc4)CC3)c2n1`, which inhibition [5] is on record?
**A.** 0%

**Q.** What about the Kinact [8] of the same compound?
**A.** 0.129 min⁻¹

**Q.** What about the inhibition [9] of the same compound?
**A.** 0%

**Q.** And the inhibition [10]?
**A.** 27%
